Measured values taken from US12195427B2, “MASP-2 inhibitors and methods of use” (priority 2018, dated 2025).

Biological target: MASP-2 CCP2-SP (Homo sapiens (Human), UniProt O00187)
Assay: MASP-2 co-crystallization, X-ray crystallography and structure analysis (H-bonds, van der Waals contacts);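 on Ligand-pharmacophore element distance, pharmacophore element C2: distance from averaged pharmacophore element to bound ligand; missing value means element absent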;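 on Ligand-pharmacophore element distance, pharmacophore element C3: distance from averaged pharmacophore element to bound ligand; missing value means element absent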;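 on Ligand-pharmacophore element distance, pharmacophore element C4: distance from averaged pharmacophore element to bound ligand; missing value means element absent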;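 on Ligand-pharmacophore element distance, pharmacophore element C5: distance from averaged pharmacophore element to bound ligand; missing value means element absent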
Set-up: van der Waals contact distance, MASP-2 HIS 483 atom CD2 / van der Waals contact distance, MASP-2 HIS 483 atom NE2 / van der Waals contact distance, SER 654 C to compound atom / van der Waals contact distance, SER 654 O to compound atom / van der Waals contact distance, TRP 655 C to compound atom / van der Waals contact distance, MASP-2 GLY 528 atom CA / van der Waals contact distance TRP 655 atom CZ3 / van der Waals contact distance TRP 655 atom N / van der Waals contact distance TRP 655 atom CE3 / van der Waals contact distance GLY 656 atom C / van der Waals contact distance GLY 656 atom CA / van der Waals contact distance GLY 656 atom O / van der Waals contact distance, MASP-2 TYR 607 atom CD1 / van der Waals contact distance, MASP-2 PRO 606 atom O / d(C3,CA1) / d(CA1,N1)2 / d(H4,O1) / d(H4,O2) / d(O1,O2) / d(CA1,O2) / d(CA6,O1) / d(CA6,O2) / d(CA1,C5) / d(O2,H3) / d(N2,C2) / d(CA5,N2) / d(N2,C4) / d(N2,C6) / d(N2,CA3) / d(N2,O3) / d(O4,H2): unit not given beside the values
Settings: for Ligand-pharmacophore element distance, pharmacophore element C2 / Ligand-pharmacophore element distance, pharmacophore element C3 / Ligand-pharmacophore element distance, pharmacophore element C4 / Ligand-pharmacophore element distance, pharmacophore element C5 / Ligand-pharmacophore element distance, pharmacophore element C6 / Ligand-pharmacophore element distance, pharmacophore element C7 / Ligand-pharmacophore element distance, pharmacophore element CA1 / Ligand-pharmacophore element distance, pharmacophore element CA2 / Ligand-pharmacophore element distance, pharmacophore element CA3 / Ligand-pharmacophore element distance, pharmacophore element CA4 / Ligand-pharmacophore element distance, pharmacophore element CA5 / Ligand-pharmacophore element distance, pharmacophore element CA6: Table A4-1; for d(CA1,N1)2 / d(CA1,O1) / d(CA1,O2) / d(H4,O1) / d(H4,O2) / d(O1,O2) / d(C3,CA1): Table A5-1 pharmacophore: distance between elements, S2/S1 region; for d(N2,CA2) / d(O2,H3) / d(O2,N2) / d(N2,C2): Table A5-2 pharmacophore distance, S3/S4 region; for a(CA1, O1, O2) / a(O1, O2, H4) / a(N1, CA1, O1) b) / a(C3, CA1, O1): Table A6-1 pharmacophore angle; for a(N1, CA1, O1) b): Methyl-amino-pyridine compounds; for a(O1, O2, H3) / a(O1, O2, N2) / a(O2, N2, CA2) / a(O2, N2, C2): Table A6-2 pharmacophore angle; for Pharmacophore torsion angle a(H4, O1, O2, H3) / Pharmacophore torsion angle a(H4, O1, O2, N2) / Pharmacophore torsion angle a(N1, CA1, O1, H4) / Pharmacophore torsion angle a(O1, H4, O2, CA1) / Pharmacophore torsion angle a(C3, CA1, O1, H4) / Pharmacophore torsion angle a(O1, O2, N2, C2): Table A7-1; for Pharmacophore torsion angle a(H4, O1, O2, H3) / Pharmacophore torsion angle a(H4, O1, O2, N2) / Pharmacophore torsion angle a(N1, CA1, O1, H4) / Pharmacophore torsion angle a(O1, H4, O2, CA1) / Pharmacophore torsion angle a(O1, O2, N2, CA2) / Pharmacophore torsion angle a(C3, CA1, O1, H4) / Pharmacophore torsion angle a(O1, O2, N2, C2) / Pharmacophore torsion angle a(O1, O2, N2, CA4): between pharmacophore elements of the bound compound; for Pharmacophore torsion angle a(O1, O2, N2, CA2) / Pharmacophore torsion angle a(O1, O2, N2, CA4): Table A7-2
Description: This example illustrates the preparation of recombinant MASP-2 protein, based on UniProt O00187, human mannan-binding lectin serine protease 2. Expression constructs for human MASP-2 CCP2-SP and CCP2-SP-6HIS were generated for recombinant expression in E. coli cells.
Typically, crystallization hits were obtained by screening against […] 96-well crystallization reagent kits (GRAS6, GRAS2, Hampton Research; MORPHEUS, Molecular Dimensions; Wizard 1&2 Cryo, Rigaku Reagents) and crystal growth was inspected by optical microscopy. Crystals were used directly or further optimized for X-ray diffraction. Crystals were captured with cryogenic loops and dipped into liquid nitrogen directly or cryoprotected with a 20% glycerol in crystallization formulation before flash-cooling in liquid nitrogen.
Thereafter crystals are transferred once or twice for soaking within the crystallization solution containing the MASP-2 inhibitor.
Crystals were diffracted with synchrotron X-rays of […] and X-ray diffraction datasets were collected at beamlines SSRL BL9-2, BL14-1, BL12-2 as well as ALS sector 5 using Dectris Pilatus and Eiger detectors. Structures were determined by molecular replacement using portions of the structure 1Q3X as search models and partially refined with Buster 2.10.2 or Refmac 5.8. […] When multiple ligand poses were observed, for instance arising from multiple molecules in the asymmetric unit or refined dual poses within the same molecule, only one pose was selected and analyzed.
LigPlot+ calls these ‘nonbonded contacts’ or ‘hydrophobic contacts’. Despite the name, there are atom pairings that include possible H-bonds. Thus, in some instances, the Table A2 also contains H-bond interactions.

[1] = Table A8-6, nearest protein atom in cell to the left

Sequence of MASP-2 CCP2-SP (O00187 445-686): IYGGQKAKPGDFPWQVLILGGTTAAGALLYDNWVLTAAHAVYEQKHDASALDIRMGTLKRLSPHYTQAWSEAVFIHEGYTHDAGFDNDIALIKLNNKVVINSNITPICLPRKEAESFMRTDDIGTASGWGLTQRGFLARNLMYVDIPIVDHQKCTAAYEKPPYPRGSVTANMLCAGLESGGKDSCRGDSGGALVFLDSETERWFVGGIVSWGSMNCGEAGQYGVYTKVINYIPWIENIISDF
Sequence of MASP-2 CCP2-SP (O00187 364-432 partner): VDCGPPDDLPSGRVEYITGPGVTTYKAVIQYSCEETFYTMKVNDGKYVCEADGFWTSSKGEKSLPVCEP

| Compound | Ligand-pharmacophore element distance, pharmacophore element C2 | Ligand-pharmacophore element distance, pharmacophore element C3 | Ligand-pharmacophore element distance, pharmacophore element C4 | Ligand-pharmacophore element distance, pharmacophore element C5 | Ligand-pharmacophore element distance, pharmacophore element C6 | Ligand-pharmacophore element distance, pharmacophore element C7 | Ligand-pharmacophore element distance, pharmacophore element CA1 | Ligand-pharmacophore element distance, pharmacophore element CA2 | Ligand-pharmacophore element distance, pharmacophore element CA3 | Ligand-pharmacophore element distance, pharmacophore element CA4 | Ligand-pharmacophore element distance, pharmacophore element CA5 | Ligand-pharmacophore element distance, pharmacophore element CA6 | d(CA1,N1)2 | d(CA1,O1) | d(CA1,O2) | d(H4,O1) | d(H4,O2) | d(O1,O2) | d(N2,CA2) | d(O2,H3) | other results |
| --- | --- | --- | --- | --- | --- | --- | --- | --- | --- | --- | --- | --- | --- | --- | --- | --- | --- | --- | --- | --- | --- |
| C[C@H](NC(=O)[C@H](N)CCc1ccccc1)C(=O)NCc1ccc(N)nc1.Cl.Cl [1007_1] | 0 | 0 | 0 | 0 | 0 | 0 | 0.35 | 0.77 | 0 | 0 | 0 | 0 | 1.38 | 4.39 | 3.86 | 3.59 | 2.73 | 3.55 | 6.02 | 4.41 | d(O2,N2): 2.79; a(CA1, O1, O2): 107.37; a(O1, O2, H4): 113.31; a(N1, CA1, O1) b): 174.46; a(O1, O2, H3): 146.43; a(O1, O2, N2): 138.95; a(O2, N2, CA2): 154.71; Pharmacophore torsion angle a(H4, O1, O2, H3): 50.93; Pharmacophore torsion angle a(H4, O1, O2, N2): 137.94; Pharmacophore torsion angle a(N1, CA1, O1, H4): 39.07; Pharmacophore torsion angle a(O1, H4, O2, CA1): −94.99; Pharmacophore torsion angle a(O1, O2, N2, CA2): 128.23; Pharmacophore protein distance to MET_658 (first MET_658 column) (Table A8-6, 6th residue column, nearest protein atom in cell to the left): 2.61; Pharmacophore protein distance to MET_658 (second MET_658 column) (Table A8-6, 9th residue column, nearest protein atom in cell to the left): 3.25; Pharmacophore protein distance to GLY_528 [1]: 3.76; Pharmacophore protein distance to PHE_529 [1]: 3.15; Pharmacophore protein distance to PRO_608 [1]: 3.15; Pharmacophore protein distance to SER_611 [1]: 2.06; Pharmacophore protein distance to TRP_655 (Table A8-6, pharmacophore elements C6, CA3, O3, H1, nearest protein atom in cell to the left): 3.70 |
| Cc1nc(N)ccc1CNC(=O)[C@H](C)NC(=O)[C@H]1C[C@@H](c2cccc3ccccc23)CCN1.Cl.Cl [1297_5] | 0.24 | 0.29 | 0 | 0 | 0 | 0 | 0.44 | 0.07 | 0 | 1.22 | 0 | 0 | 1.38 | 4.59 | 3.88 | 4.56 | 3.82 | 3.43 | 5.69 | 4.06 | d(C3,CA1): 2.86; d(N2,C2): 1.43; d(O2,N2): 2.67; a(C3, CA1, O1): 150.41; a(CA1, O1, O2): 102.43; a(O1, O2, H4): 132.64; a(N1, CA1, O1) b): 174.11; a(O1, O2, H3): 146.79; a(O1, O2, N2): 147.10; a(O2, N2, C2): 132.77; a(O2, N2, CA2): 157.05; Pharmacophore torsion angle a(C3, CA1, O1, H4): 30.12; Pharmacophore torsion angle a(H4, O1, O2, H3): 47.86; Pharmacophore torsion angle a(H4, O1, O2, N2): 144.38; Pharmacophore torsion angle a(N1, CA1, O1, H4): 10.41; Pharmacophore torsion angle a(O1, H4, O2, CA1): −86.41; Pharmacophore torsion angle a(O1, O2, N2, C2): 111.81; Pharmacophore torsion angle a(O1, O2, N2, CA2): 122.50; Pharmacophore torsion angle a(O1, O2, N2, CA4): 101.00 |
| Cc1nc(N)ccc1CNC(=O)[C@H](C)NC(=O)[C@H]1C[C@@H](c2cccc3ccccc23)CCN1.Cl.Cl [1297_2] | 0.34 | 0.17 | 0 | 0 | 0 | 0 | 0.47 | 0.22 | 0 | 1.25 | 0 | 0 | 1.37 | 4.48 | 3.69 | 4.41 | 3.62 | 3.57 | 5.78 | 3.98 | d(C3,CA1): 2.88; d(N2,C2): 1.47; d(O2,N2): 2.84; a(C3, CA1, O1): 150.01; a(CA1, O1, O2): 103.93; a(O1, O2, H4): 128.26; a(N1, CA1, O1) b): 174.54; a(O1, O2, H3): 144.48; a(O1, O2, N2): 141.45; a(O2, N2, C2): 127.48; a(O2, N2, CA2): 154.79; Pharmacophore torsion angle a(C3, CA1, O1, H4): 29.10; Pharmacophore torsion angle a(H4, O1, O2, H3): 51.75; Pharmacophore torsion angle a(H4, O1, O2, N2): 141.21; Pharmacophore torsion angle a(N1, CA1, O1, H4): 23.27; Pharmacophore torsion angle a(O1, H4, O2, CA1): −87.24; Pharmacophore torsion angle a(O1, O2, N2, C2): 116.16; Pharmacophore torsion angle a(O1, O2, N2, CA2): 126.84; Pharmacophore torsion angle a(O1, O2, N2, CA4): 106.20 |
